In patent US7807418B2, “Method for producing hybrid polyketide synthases” (Biotica Technology Limited, priority 1996, dated 2010):

Tested on: Bacillus subtilis ATCC 6633
Assay: Determination of antibiotic activity, agar well diffusion, zones of growth inhibition
Type: cell-based
Settings: nutrient 1.5% agar seeded with B. subtilis; 20 microlitres of test compound as a solution in ethanol (5-10 mg/L) per well; incubated overnight
Experimental: A 3 ml overnight culture of Bacillus subtilis ATCC 6633 was grown at 30% C in nutrient broth (Difco). 200 ml of nutrient 1.5% agar (difco) at 46% C was seeded with 1 ml of the B.subtilis culture and poured immediately into petri dishes (25 ml/plate). After drying the plates in a laminar flow hood for 15 minutes, wells ([…] in diameter) were cut using a cork borer and 20 microlitres of the test compound as a solution in ethanol (5-10 mg/L) was added to each well. The plates were kept at 4% C for 5-7 hours to allow the compound to diffuse, and the plates were then incubated overnight at 30% C.

`CCC(C)C1OC(=O)C(C)C(OC2CC(C)(OC)C(O)C(C)O2)C(C)C(OC2OC(C)CC(N(C)C)C2O)C(C)(O)CC(C)C(=O)C(C)C(O)C1(C)O` (centres unmarked) [(s-pent)-erythromycin A] was tested, and the “zones of growth inhibition” value was “Clear zones of growth inhibition”.

With `COC1(C)CC(OC2C(C)C(=O)OC(C(C)C)C(C)(O)C(O)C(C)C(=O)C(C)CC(C)(O)C(OC3OC(C)CC(N(C)C)C3O)C2C)OC(C)C1O` (centres unmarked) [(i-but)-erythromycin A] the “zones of growth inhibition” value was “Clear zones of growth inhibition”.
